Data from ChEMBL document CHEMBL1201862, “PubChem BioAssay data set” (2004).
Values joined by “and” are separate entries in the source; they are usually repeats but may differ in a detail not shown here. Equal entries are not always repeated.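 Dose response: 5 concentrations. Exposure: 48 h. Format: 96-well plates. Endpoint: linear interpolation; highest concentration if not reached. Here, GI50 denotes the concentration required for 50% inhibition of growth.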 Active and inactive are the calls of the source. Rule as the data show it: active = GI50 up to about 1.1 µM and inactive = higher.

How the values were obtained:
Experiment in all cases: inhibition of tumour cell growth, NCI panel, 48 h
RPMI-8226 = test system: RPMI-8226
LOX IMVI = test system: LOX IMVI
MOLT-4 = test system: MOLT-4
SR = test system: SR
UACC-62 = test system: UACC-62
CCRF-CEM = test system: CCRF-CEM
K562 = test system: K562
LXFL 529 = test system: LXFL 529
HL-60 = test system: HL-60
U-251 = test system: U-251
OVCAR-8 = test system: OVCAR-8
TK-10 = test system: TK-10
COLO 205 = test system: COLO 205
DLD-1 = test system: DLD-1
DMS-273 = test system: DMS-273
NCI-H23 = test system: NCI-H23
KM12 = test system: KM12
SN12C = test system: SN12C
RXF 393 = test system: RXF 393
UACC-257 = test system: UACC-257
SF-539 = test system: SF-539
HCC 2998 = test system: HCC 2998
OVCAR-3 = test system: OVCAR-3
HT-29 = test system: HT-29
NCI-H522 = test system: NCI-H522
SW-620 = test system: SW-620
M19-MEL = test system: M19-MEL
Malme-3M = test system: Malme-3M
KM-20L2 = test system: KM-20L2
IGROV-1 = test system: IGROV-1
HOP-62 = test system: HOP-62
NCI-H460 = test system: NCI-H460
SNB-19 = test system: SNB-19
UO-31 = test system: UO-31
DMS-114 = test system: DMS-114
ACHN = test system: ACHN
NCI-H226 = test system: NCI-H226
HCT-15 = test system: HCT-15
A549 = test system: A549
SK-MEL-28 = test system: SK-MEL-28
HCT-116 = test system: HCT-116
786-0 = test system: 786-0
EKVX = test system: EKVX
M14 = test system: M14
SF-295 = test system: SF-295
SNB-75 = test system: SNB-75
SNB-78 = test system: SNB-78
SK-OV-3 = test system: SK-OV-3
SF-268 = test system: SF-268
A498 = test system: A498
SK-MEL-5 = test system: SK-MEL-5
OVCAR-4 = test system: OVCAR-4
CAKI-1 = test system: CAKI-1
SK-MEL-2 = test system: SK-MEL-2
OVCAR-5 = test system: OVCAR-5
HOP-92 = test system: HOP-92

Measured: GI50

N#Cc1c(-c2ccccc2)cc(-c2ccccc2)n(C2OC(CO)C(O)C(O)C2O)c1=O (stereo unspecified)
inactive: RPMI-8226 69.7 µM and 84.3 µM | LOX IMVI 61.9 µM and 63.1 µM | MOLT-4 41 µM and 38.2 µM | SR 47.3 µM | UACC-62 86.5 µM and 84.3 µM | CCRF-CEM 59.8 µM and 47.1 µM | K562 44.2 µM and 49.7 µM | LXFL 529 68.4 µM and 97.5 µM | HL-60 43.9 µM and 44.2 µM

O=C1c2ccccc2C(=O)C2C3c4ccccc4C(c4ccccc43)C12 (stereo unspecified)
39 µM: HCT-15
inactive: U-251 31 µM | RPMI-8226 10.9 µM | OVCAR-8 12.6 µM | TK-10 24.5 µM | COLO 205 45 µM | LOX IMVI 13.5 µM | DLD-1 > 100 µM | MOLT-4 12.7 µM | DMS-273 19.1 µM | SR 14.4 µM | NCI-H23 41.7 µM | KM12 28.2 µM | SN12C 23.9 µM | RXF 393 7.8 µM | UACC-62 33 µM | UACC-257 23.7 µM | SF-539 12.5 µM | CCRF-CEM 10.7 µM | HCC 2998 36.3 µM | OVCAR-3 19.5 µM | HT-29 21.1 µM | NCI-H522 31.3 µM | K562 15.9 µM | SW-620 > 100 µM | M19-MEL 18.5 µM | Malme-3M 13.1 µM | LXFL 529 15.3 µM | KM-20L2 > 100 µM | IGROV-1 22.9 µM | HOP-62 30 µM | NCI-H460 50.2 µM | SNB-19 26.9 µM | UO-31 21.8 µM | DMS-114 16.8 µM | ACHN 30.6 µM | NCI-H226 77.3 µM | A549 28.7 µM | SK-MEL-28 29.8 µM | HCT-116 28.8 µM | 786-0 5.45 µM | EKVX 14.7 µM | M14 56.4 µM | SF-295 12.8 µM | SNB-75 15.6 µM | SNB-78 18.7 µM | SK-OV-3 24.9 µM | SF-268 13.4 µM

O=C(c1nc2ccc(Cl)cc2nc1O)C(O)c1ccccc1 (stereo unspecified)
98.6 µM: HCT-15
inactive: A498 14.8 µM | U-251 > 10 µM | RPMI-8226 3.85 µM | OVCAR-8 > 100 µM | TK-10 > 100 µM | SK-MEL-5 > 100 µM | COLO 205 > 100 µM | LOX IMVI 34.8 µM | DLD-1 > 100 µM | MOLT-4 13.2 µM | DMS-273 98.6 µM | OVCAR-4 14.3 µM | SR 13 µM | NCI-H23 92.9 µM | KM12 51.2 µM | CAKI-1 65.5 µM | SN12C > 100 µM | UACC-62 96.8 µM | UACC-257 > 100 µM | SF-539 57.7 µM | CCRF-CEM 2.32 µM | HCC 2998 > 100 µM | OVCAR-3 32.8 µM | HT-29 > 100 µM | NCI-H522 10.9 µM | K562 21.8 µM | SW-620 > 100 µM | M19-MEL > 100 µM | Malme-3M > 100 µM | LXFL 529 32.7 µM | KM-20L2 76 µM | IGROV-1 > 100 µM | HOP-62 > 100 µM | NCI-H460 > 100 µM | SNB-19 > 100 µM | SK-MEL-2 > 100 µM | UO-31 > 100 µM | DMS-114 56.5 µM | ACHN 39 µM | OVCAR-5 > 100 µM | NCI-H226 84.7 µM | A549 35.2 µM | SK-MEL-28 68.7 µM | HCT-116 > 100 µM | HL-60 9.86 µM | HOP-92 18.2 µM | 786-0 > 100 µM | EKVX 22 µM | M14 > 100 µM | SF-295 > 100 µM | SNB-78 > 100 µM | SK-OV-3 > 100 µM | SF-268 77.1 µM
